Source: ChEMBL document CHEMBL4811285, “Effects of N-terminus modified Hx-amides on DNA binding affinity, sequence specificity, cellular uptake, and gene expression” (Bioorg Med Chem Lett, 2021)
Calls of active or inactive are those of the source. The calls are words filed in the database; no cut-off is given here.

Columns and labels:
TOP2A promoter [1] = test: Inhibition of 5'-TACGAT-3 (unknown origin) binding to 32P-radiolabeled DNA ICB2 -binding site (unknown origin) assessed as disruption NF-Y/ICB2 interaction using NIH3T3 cell nuclear protein extract at >= 3 uM incubated for 1 hr by electrophoretic mobility shift assay; conditions: dose microM >=3, time 1.0 hrs
[2] = Induction of TOP2A mRNA expression in human A549 cells assessed as fold increase in mRNA expression at 2 uM incubated for 18 hrs by real time PCR analysis; assay type: cell-based
[3] = Drug uptake in mouse NIH3T3 cells assessed as increase in fluorescence intensity at 20 uM after 24 hr by confocal microscopic analysis relative to control; assay type: ADME, cell-based; conditions: nih3t3, 24 h
TOP2A promoter [4] = test: Binding affinity to 5'-AACGTT-3' DNA (unknown origin) at 1 uM by DNase1 footprinting based Autoradiogram analysis; assay type: nucleic-acid assay
[5] = Drug uptake in mouse NIH3T3 cells assessed as increase in fluorescence intensity at 1 uM after 24 hr by confocal microscopic analysis relative to control; assay type: ADME, cell-based; conditions: nih3t3, 24 h
TOP2A promoter [6] = test: Binding affinity to 5'-AACGTT-3' DNA (unknown origin) at 0.5 uM by DNase1 footprinting based Autoradiogram analysis; assay type: nucleic-acid assay
[7] = Drug uptake in mouse NIH3T3 cells assessed as fluorescence in mitochondria upto 20 uM incubated for 24 hrs under dark condition by mito-tracker red dye based confocal microscopic analysis; assay type: ADME; conditions: nih3t3, 24 h
[8] = Drug uptake in mouse NIH3T3 cells assessed as increase in fluorescence intensity at 10 uM after 24 hr by confocal microscopic analysis relative to control; assay type: ADME, cell-based; conditions: nih3t3, 24 h
TOP2A promoter [9] = test: Inhibition of 5'-TACGAT-3 (unknown origin) binding to 32P-radiolabeled DNA ICB2 -binding site (unknown origin) assessed as disruption NF-Y/ICB2 interaction using NIH3T3 cell nuclear protein extract incubated for 1 hr by electrophoretic mobility shift assay
TOP2A promoter [10] = test: Inhibition of 5'-TACGAT-3 (unknown origin) binding to 32P-radiolabeled DNA ICB2 -binding site (unknown origin) assessed as disruption NF-Y/ICB2 interaction using NIH3T3 cell nuclear protein extract at >= 1 uM incubated for 1 hr by electrophoretic mobility shift assay; conditions: dose microM >=1, time 1.0 hrs
TOP2A promoter [11] = test: Binding affinity to 5'-AACGTT-3' DNA (unknown origin) at 3 uM by DNase1 footprinting based Autoradiogram analysis; assay type: nucleic-acid assay
[12] = Drug uptake in mouse NIH3T3 cells assessed as fluorescence in nucleus upto 20 uM incubated for 24 hrs under dark condition by mito-tracker dye based confocal microscopic analysis; assay type: ADME, cell-based; conditions: nih3t3, 24 h
TOP2A promoter [13] = test: Binding affinity to 5'-AACGTT-3' DNA promoter TOP2A (unknown origin) at 3 uM by DNase1 footprinting based Autoradiogram analysis; assay type: nucleic-acid assay
TOP2A promoter [14] = test: Binding affinity to 5'-AACGTT-3' DNA (unknown origin) at 10 uM by DNase1 footprinting based Autoradiogram analysis; assay type: nucleic-acid assay
DNA [15] = test: Binding affinity to DNA at 5'-ACGGGT-3' (unknown origin) upto 25 uM by DNase1 footprinting based autoradiogram analysis; assay type: nucleic-acid assay; conditions: dose microM <=25
DNA [16] = test: Binding affinity to DNA at 5'-ACCGGT-3' (unknown origin) upto 25 uM by DNase1 footprinting based autoradiogram analysis; assay type: nucleic-acid assay; conditions: dose microM <=25
DNA [17] = test: Binding affinity to DNA at 5'-AAATTT-3' (unknown origin) upto 25 uM by DNase1 footprinting based autoradiogram analysis; assay type: nucleic-acid assay; conditions: dose microM <=25
DNA [18] = test: Binding affinity to DNA at 5'-AAGCTT-3' (unknown origin) upto 25 uM by DNase1 footprinting based autoradiogram analysis; assay type: nucleic-acid assay; conditions: dose microM <=25
DNA [19] = test: Binding affinity to DNA at 5'-ACGGGT-3' site (unknown origin) assessed as protection of the site from enzyme digestion at 5 uM by DNase1 footprinting based autoradiogram analysis; assay type: nucleic-acid assay
DNA [20] = test: Binding affinity to DNA at 5'-ACGCGT-3' (unknown origin) upto 25 uM by DNase1 footprinting based autoradiogram analysis; assay type: nucleic-acid assay; conditions: dose microM <=25
DNA [21] = test: Binding affinity to DNA at 5'-AAGCTT-3' site (unknown origin) assessed as protection of the site from enzyme digestion at 5 uM by DNase1 footprinting based autoradiogram analysis; assay type: nucleic-acid assay
DNA [22] = test: Binding affinity to DNA at 5'-ACTAGT-3' (unknown origin) upto 25 uM by DNase1 footprinting based autoradiogram analysis; assay type: nucleic-acid assay; conditions: dose microM <=25

## CN(C)CCCNC(=O)c1cc(NC(=O)c2nc(NC(=O)c3ccc4nc(-c5ccco5)[nH]c4c3)cn2C)cn1C
TOP2A promoter [1]
  inhibition: Active

## CN(C)CCCNC(=O)c1cc(NC(=O)c2nc(NC(=O)c3ccc4nc(-c5cc6ccccc6o5)[nH]c4c3)cn2C)cn1C
TOP2A promoter [1]
  inhibition: Active

## CN(C)CCCNC(=O)c1cc(NC(=O)c2nc(NC(=O)c3ccc4nc(-c5ccncc5)[nH]c4c3)cn2C)cn1C
[2]; human, a549, 18 h, 2 µM
  Activity: Not Active
[3]
  Flu intensity: 1.6
TOP2A promoter [4]
  Activity: Active
[5]
  Flu intensity: 1.29
TOP2A promoter [6]
  Activity: Active
[7]
  Drug uptake: Active
[8]
  Flu intensity: 1.49
TOP2A promoter [9]
  inhibition: Dose-Dependent Effect

## COc1ccc(-c2nc3ccc(C(=O)Nc4cn(C)c(C(=O)Nc5cc(C(=O)NCCCN(C)C)n(C)c5)n4)cc3[nH]2)cn1
TOP2A promoter [1]
  inhibition: Active

## CN(C)CCCNC(=O)c1cc(NC(=O)c2nc(NC(=O)c3ccc4nc(-c5ccc(F)cc5)[nH]c4c3)cn2C)cn1C
[2]; Homo sapiens, A549, read-out: FC
  fold induction at 2 µM: 1.7
TOP2A promoter [10]
  inhibition: Active
[3]
  Flu intensity: 15.01
TOP2A promoter [11]
  Activity: Active
[12]
  Drug uptake: Active
[5]
  Flu intensity: 1.12
TOP2A promoter [13]
  Activity: Active
[8]
  Flu intensity: 6.08

## COc1ccc(-c2nc3ccc(C(=O)Nc4cn(C)c(C(=O)Nc5cc(C(=O)NCCCN(C)C)n(C)c5)n4)cc3[nH]2)cc1
TOP2A promoter [14]
  Activity: inactive
DNA [15]
  Activity: inactive
[3]
  Flu intensity: 32.03
TOP2A promoter [11]
  Activity: Active
DNA [16]
  Activity: inactive
DNA [17]
  Activity: inactive
DNA [18]
  Activity: inactive
[5]
  Flu intensity: 2.75
DNA [19]
  Activity: Active
DNA [20]
  Activity: inactive
[8]
  Flu intensity: 13.96
DNA [21]
  Activity: Active
DNA [22]
  Activity: inactive
